Results on six compounds are retold here after patent US8207121B2, “Sensitization to another anticancer therapy and/or amelioration of a side effect of another anticancer therapy by treatment with a GST-activated anticancer compound” (Telik, Inc., priority 2004, dated 2012).

Counter-ions that a name gives are not always drawn. Like-named read-outs stand apart in the source and are kept apart here.

One series deals with T1, GST M1a-1a (Homo sapiens, UniProt P09488).
T1 sequence (P09488 1-218): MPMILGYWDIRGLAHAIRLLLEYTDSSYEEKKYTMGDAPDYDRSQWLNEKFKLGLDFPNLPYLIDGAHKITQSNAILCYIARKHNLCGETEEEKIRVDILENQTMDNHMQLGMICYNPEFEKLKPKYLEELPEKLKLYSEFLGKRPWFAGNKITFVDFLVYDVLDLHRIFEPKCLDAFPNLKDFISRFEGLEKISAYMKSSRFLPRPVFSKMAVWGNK
As to conditions: cited from earlier work.

Another series deals with GST P1-1 (Homo sapiens, UniProt P09211). The settings on record: cited from earlier work.
Sequence of GST P1-1 (P09211 2-210 limits assumed): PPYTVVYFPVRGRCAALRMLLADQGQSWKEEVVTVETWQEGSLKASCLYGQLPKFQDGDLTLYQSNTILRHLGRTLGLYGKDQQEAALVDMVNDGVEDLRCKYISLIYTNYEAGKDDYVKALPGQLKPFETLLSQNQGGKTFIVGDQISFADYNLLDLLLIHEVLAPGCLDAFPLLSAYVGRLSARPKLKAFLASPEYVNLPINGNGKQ
Another series addresses T2, GST A1-1 (Homo sapiens, UniProt P08263).
T2 sequence (P08263 1-222): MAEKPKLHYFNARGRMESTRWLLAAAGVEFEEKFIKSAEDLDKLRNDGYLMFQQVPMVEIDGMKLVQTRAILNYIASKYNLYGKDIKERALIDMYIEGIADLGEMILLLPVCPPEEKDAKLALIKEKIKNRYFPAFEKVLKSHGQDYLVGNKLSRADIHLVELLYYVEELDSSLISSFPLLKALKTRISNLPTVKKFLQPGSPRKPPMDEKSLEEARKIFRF
As to conditions: cited from earlier work.

Series [1] in a line: Clinical observation: side effects of carboplatin therapy in ovarian cancer patients. Type of series: in vivo, human. An excerpt: Ovarian cancer patients treated with carboplatin-containing regimens underwent repeated cycles of alopecia corresponding to the administration of the carboplatin.
A further series relates to M7609 xenografts. The settings on record: xenografts engineered to have high, medium, and low GST P1-1; cited from earlier work.
The test system of series [2] is ovarian, breast, non-small cell lung, and colorectal cancers. The settings on record: cited from earlier work.
In a further series the test system is OVCAR-3 cells. Kind of series: Cytotoxicity assay (CellTiter-Glo), OVCAR-3. The settings on record: Homo sapiens. It is filed as cell-based. The method, then: Cancer cell line. The human cancer cell line OVCAR-3 (ovarian adenocarcinoma) was obtained from the National Cancer Institute, Bethesda, Md., U.S.A.
(§1) A paclitaxel-resistant derivative cell line OVCAR-PR was developed from the human ovarian cancer cell line OVCAR-3 by growing OVCAR-3 cells in gradually increasing concentrations (up to 5 nM) of paclitaxel. A canfosfamide-modified derivative cell line OVCAR-TLK was developed by growing OVCAR-3 cells in gradually increasing concentrations (up to 6.5 μM) of canfosfamide. To maintain the phenotypes of the cell lines, the cells were treated with the compounds at weekly intervals. Cells were grown in compound-free media for 24 hours before any experiments.
(§2) Cytotoxicity assay. Log-phase cells were seeded in 96-well plates and incubated with the diluted compound or solvent for 2-3 doubling times. The extent of cell growth was quantitated using the CellTiter-Glo assay (Promega Corporation, Madison, Wis., U.S.A.), used in accordance with the assay kit directions. The amount of ATP in the lysate, which corresponds to the number of viable cells, was quantitated using a luminometer. All assays were conducted in triplicate wells, with solvent control. The extent of cell growth was expressed as a percentage of the signal from the solvent control wells. The mean of the triplicate wells was computed and IC50 determined using PrismGraph.
(In general: Cellular ATP, detected with luciferase, serves as a proxy for viable cell number.)

Another series concerns OVCAR-PR cells. Kind of series: Cytotoxicity assay (CellTiter-Glo), paclitaxel-resistant OVCAR-PR. The settings on record: for IC50: Homo sapiens; for increase in resistance: IC50 in OVCAR-PR cells versus OVCAR-3 cells. Type of series: cell-based, human. How it is done: as §1, §2
For a further series, the system named is OVCAR-TLK cells. The series is described as follows: Cytotoxicity assay (CellTiter-Glo), canfosfamide-modified OVCAR-TLK. It is filed as cell-based, human. The method, then:
as §1, §2
Cell doubling time. 1.5×10^4 cells were seeded in a 25-mL flask. The cells were grown for four days and the number of viable cells was determined by Trypan Blue staining and manual counting using a hemocytometer. The assay was conducted in triplicate at each time point. The times for two cell doublings for OVCAR-3 and OVCAR-TLK cells were approximately 3.5 and 5.5 days, respectively.

The test system of series [3] is M6709 human colon carcinoma cell line selected for resistance to doxorubicin. As to conditions: line overexpresses GST P1-1; cited from earlier work.
In series [4] the test system is MCF-7 human breast carcinoma cell line selected for resistance to cyclophosphamide. As to conditions: line overexpresses GST P1-1; cited from earlier work.
Series [5] concerns cell culture and tumor biopsies. As to conditions: cited from earlier work.

With `N[C@@H](CCC(=O)N[C@@H](CS(=O)(=O)CCOP(=O)(N(CCCl)CCCl)N(CCCl)CCCl)C(=O)NCC(=O)O)C(=O)O` [TLK231, L-γ-glutamyl-3-[[2-[[bis[bis(2-chloroethyl)amino]phosphinyl]oxy]ethyl]sulfonyl]-L-alanyl-glycine], at GST M1a-1a, the “activation by GST isoenzyme” value was “activated”.

For `N[C@@H](CCC(=O)N[C@@H](Cc1cccc(S(=O)(=O)CCOP(=O)(N(CCCl)CCCl)N(CCCl)CCCl)c1)C(=O)NCC(=O)O)C(=O)O` [TLK(296, L-γ-glutamyl-3-[[2-[[bis[bis(2-chloroethyl)amino]phosphinyl]oxy]ethyl]sulfonyl]-L-phenylalanyl-glycine], the “activation by GST isoenzyme” value on GST P1-1 was “activated”.

In the case of `C[C@@](NC(=O)[C@H](CS(=O)(=O)CCOP(=O)(N(CCCl)CCCl)N(CCCl)CCCl)NC(=O)CC[C@H](N)C(=O)O)(C(=O)O)c1ccccc1` [TLK(303, L-γ-glutamyl-3-[[2-[[bis[bis(2-chloroethyl)-amino]phosphinyl]oxy]ethyl]sulfonyl]-L-alanyl-2-phenyl-(2S)-alanine], the “activation by GST isoenzyme” value at GST A1-1 is listed as “activated”.

For `N[C@@H](CCC(=O)N[C@@H](CS(=O)(=O)CCOP(=O)(N(CCCl)CCCl)N(CCCl)CCCl)C(=O)N[C@@H](C(=O)O)c1ccccc1)C(=O)O` [canfosfamide hydrochloride], the “recurrence of alopecia with carboplatin treatment” value in series [1] (carboplatin AUC 5 or 6 mg/mL·min with canfosfamide hydrochloride 500, 750 and 960 mg/m^2) is “did not experience the same recurrence of alopecia”. For the same compound, the “hematologic and neurologic side effects of carboplatin” value in series [1] (carboplatin in combination with canfosfamide hydrochloride) is reported as “similarly ameliorated”. Moreover, the “potency versus level of GST P1-1” value with M7609 xenografts was “positively correlated with the level of GST P1-1”. For the same compound, the “hematological toxicity in patients” value in [2] (treated patients) was “very low incidence of clinically significant hematological toxicity”.

Consider `N[C@@H](CCC(=O)N[C@@H](CS(=O)(=O)CCOP(=O)(N(CCCl)CCCl)N(CCCl)CCCl)C(=O)N[C@@H](C(=O)O)c1ccccc1)C(=O)O` [canfosfamide, L-γ-glutamyl-3-[[2-[[bis[bis(2-choroethyl)-amino]phosphinyl]oxy]ethyl]sulfonyl]-L-alanyl-2-phenyl-(2R)-glycine], for which the IC50 with OVCAR-3 cells (OVCAR-3) is 1300 nM; with OVCAR-PR cells it was 1600 nM. This compound also had an increase in resistance in the series on OVCAR-PR cells of 1.2 fold. For the same compound, in the series with OVCAR-TLK cells (treated for approximately two doubling times), the “sensitivity to canfosfamide, OVCAR-3 versus OVCAR-TLK” value is listed as “approximately equally sensitive”. Also, the “potency versus parental cell line” value in series [3] and in [4] was “more potent” each time. In addition, the “cross-resistance to platinum, paclitaxel, doxorubicin and gemcitabine” value in series [5] was “non-cross-resistant”. Also, the “activation by GST isoenzyme” value at GST P1-1 and at GST A1-1 was “activated” each time. The clinical activity entry in series [2] (colorectal and breast cancer) was “single agent antitumor activity”; in series [2] (patients with non-small cell lung cancer and ovarian cancer), “significant single agent antitumor activity and improvement in survival”.

For the compound `CC(=O)O[C@H]1C(=O)[C@@]2(C)[C@H]([C@H](OC(=O)c3ccccc3)[C@]3(O)C[C@H](OC(=O)[C@H](O)[C@@H](NC(=O)c4ccccc4)c4ccccc4)C(C)=C1C3(C)C)[C@]1(OC(C)=O)CO[C@@H]1C[C@@H]2O` [paclitaxel], the IC50 in the series on OVCAR-3 cells (OVCAR-3 cells, read-out: IC50) turned out to be 1.3 nM; with OVCAR-PR cells (OVCAR-PR cells, read-out: IC50), 49 nM. Moreover, the increase in resistance result with OVCAR-PR cells is given as “more than 35 fold”. Besides, in the series with OVCAR-PR cells (OVCAR-PR cells first treated overnight with 4 μM canfosfamide), the “decrease of IC50 for paclitaxel after canfosfamide pretreatment” value is on record as “approximately 3 fold”. The “IC50s for paclitaxel, OVCAR-3 versus OVCAR-TLK” value in the series on OVCAR-TLK cells (equal treatment times) is recorded as “approximately the same”. In addition, the “IC50 for paclitaxel lower in OVCAR-TLK than in OVCAR-3 cells” value in the series with OVCAR-TLK cells (treatment times adjusted for doubling times (approximately two doubling times)) was “about 2 fold”.

One may read the IC50 as the midpoint of a concentration-inhibition curve.
